Earlier results as cited in patent US5672583A, “Carboxy-peptidyl derivatives as antidegenerative active agents” (Merck & Co., Inc., priority 1995, dated 1997).

Assays:
[1] = target: T1, human rheumatoid synovial collagenase (Homo sapiens, UniProt P03956); conditions: Delaisse et al., Biochem. Biophys. Res. Commun. 133, 483-90 (1985)
T1 sequence (P03956 100-469): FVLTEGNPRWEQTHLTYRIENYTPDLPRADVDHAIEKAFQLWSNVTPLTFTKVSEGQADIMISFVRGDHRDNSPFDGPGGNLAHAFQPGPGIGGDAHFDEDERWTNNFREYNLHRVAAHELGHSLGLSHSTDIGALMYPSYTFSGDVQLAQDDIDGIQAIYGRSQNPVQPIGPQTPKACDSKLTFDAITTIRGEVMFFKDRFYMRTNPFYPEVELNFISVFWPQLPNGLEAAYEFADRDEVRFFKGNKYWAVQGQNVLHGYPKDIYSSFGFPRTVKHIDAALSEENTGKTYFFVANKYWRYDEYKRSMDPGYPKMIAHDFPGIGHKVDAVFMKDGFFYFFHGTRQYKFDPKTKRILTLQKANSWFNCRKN

[2] = target: rabbit bone proteoglycanase (Oryctolagus cuniculus, UniProt P28863); conditions: Delaisse et al., Biochem. Biophys. Res. Commun. 133, 483-90 (1985)
rabbit bone proteoglycanase, sequence (P28863 101-478): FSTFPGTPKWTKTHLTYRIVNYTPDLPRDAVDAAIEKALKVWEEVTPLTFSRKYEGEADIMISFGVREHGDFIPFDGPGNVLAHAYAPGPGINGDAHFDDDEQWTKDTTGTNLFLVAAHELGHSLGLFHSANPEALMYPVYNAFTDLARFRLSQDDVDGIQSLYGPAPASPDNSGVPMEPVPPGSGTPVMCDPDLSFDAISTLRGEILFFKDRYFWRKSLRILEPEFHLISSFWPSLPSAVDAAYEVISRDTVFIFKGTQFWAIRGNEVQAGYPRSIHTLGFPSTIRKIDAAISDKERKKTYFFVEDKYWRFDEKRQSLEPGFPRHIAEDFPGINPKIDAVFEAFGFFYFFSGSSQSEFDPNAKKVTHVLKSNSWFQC

Structure (SMILES): CNC(=O)[C@H](Cc1ccc(OC)cc1)NC(=O)[C@H](CC(C)C)NC(CCNC(=O)OCc1ccccc1)C(=O)O (stereo partly drawn) [N-[3-(benzyloxycarbonyl)amino-1-carboxy-n-propyl]-L-leucyl-O-methyl-L-tyrosine, N-methylamide]
- IC50 [1]: 800 nM
- IC50 [2]: 500 nM
